Results as given in ChEMBL document CHEMBL1201862, “PubChem BioAssay data set” (2004).
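Method: 48-hour compound exposure of cells in 96-well plates, five concentrations, linear interpolation of endpoints. Here, GI50 denotes the concentration required for 50% inhibition of growth.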 The source made the active and inactive calls. Cut-off read from the data, not from the text of the source: active = GI50 up to about 1.1 µM and inactive = higher.

Key:
Experiment in all cases: inhibition of tumour cell growth, NCI panel, 48 h
786-0 = tested on: 786-0
A498 = tested on: A498
A549 = tested on: A549
ACHN = tested on: ACHN
BT-549 = tested on: BT-549
CAKI-1 = tested on: CAKI-1
CCRF-CEM = tested on: CCRF-CEM
COLO 205 = tested on: COLO 205
DU-145 = tested on: DU-145
EKVX = tested on: EKVX
HCC 2998 = tested on: HCC 2998
HCT-116 = tested on: HCT-116
HCT-15 = tested on: HCT-15
HL-60 = tested on: HL-60
HOP-62 = tested on: HOP-62
HOP-92 = tested on: HOP-92
HT-29 = tested on: HT-29
Hs-578T = tested on: Hs-578T
IGROV-1 = tested on: IGROV-1
K562 = tested on: K562
KM12 = tested on: KM12
LOX IMVI = tested on: LOX IMVI
M14 = tested on: M14
MCF7 = tested on: MCF7
MDA-MB-231 = tested on: MDA-MB-231
MDA-MB-435 = tested on: MDA-MB-435
MDA-N = tested on: MDA-N
MOLT-4 = tested on: MOLT-4
Malme-3M = tested on: Malme-3M
NCI-H226 = tested on: NCI-H226
NCI-H23 = tested on: NCI-H23
NCI-H460 = tested on: NCI-H460
NCI-H522 = tested on: NCI-H522
NCI/ADR-RES = tested on: NCI/ADR-RES
OVCAR-3 = tested on: OVCAR-3
OVCAR-4 = tested on: OVCAR-4
OVCAR-5 = tested on: OVCAR-5
OVCAR-8 = tested on: OVCAR-8
PC-3 = tested on: PC-3
RPMI-8226 = tested on: RPMI-8226
RXF 393 = tested on: RXF 393
SF-268 = tested on: SF-268
SF-295 = tested on: SF-295
SF-539 = tested on: SF-539
SK-MEL-28 = tested on: SK-MEL-28
SK-MEL-2 = tested on: SK-MEL-2
SK-MEL-5 = tested on: SK-MEL-5
SK-OV-3 = tested on: SK-OV-3
SN12C = tested on: SN12C
SNB-19 = tested on: SNB-19
SNB-75 = tested on: SNB-75
SW-620 = tested on: SW-620
T47D = tested on: T47D
TK-10 = tested on: TK-10
U-251 = tested on: U-251
UACC-257 = tested on: UACC-257
UACC-62 = tested on: UACC-62
UO-31 = tested on: UO-31
SR = tested on: SR

SMILES: O=C(O)CC1NC(/C(=C/c2ccccc2)NC(=O)c2ccccc2)OC1=O (stereo not drawn)
- GI50 (786-0): 29.4 µM (inactive)
- GI50 (A498): > 100 µM (inactive)
- GI50 (A549): 84.5 µM (inactive)
- GI50 (ACHN): > 100 µM (inactive)
- GI50 (BT-549): 19.9 µM (inactive)
- GI50 (CAKI-1): > 100 µM (inactive)
- GI50 (CCRF-CEM): 22.6 µM (inactive)
- GI50 (COLO 205): 19.8 µM (inactive)
- GI50 (DU-145): 52.4 µM (inactive)
- GI50 (EKVX): 39.6 µM (inactive)
- GI50 (HCC 2998): 37.9 µM (inactive)
- GI50 (HCT-116): 18.5 µM (inactive)
- GI50 (HCT-15): 31 µM
- GI50 (HL-60): 11.6 µM (inactive)
- GI50 (HOP-62): 18.9 µM (inactive)
- GI50 (HOP-92): > 100 µM (inactive)
- GI50 (HT-29): 29.8 µM (inactive)
- GI50 (Hs-578T): 44.8 µM (inactive)
- GI50 (IGROV-1): 25.1 µM (inactive)
- GI50 (K562): 21.3 µM (inactive)
- GI50 (KM12): 17.4 µM (inactive)
- GI50 (LOX IMVI): 16.2 µM (inactive)
- GI50 (M14): 17.1 µM (inactive)
- GI50 (MCF7): 47.2 µM (inactive)
- GI50 (MDA-MB-231): 27.4 µM (inactive)
- GI50 (MDA-MB-435): 24.6 µM (inactive)
- GI50 (MDA-N): 30.1 µM (inactive)
- GI50 (MOLT-4): 17.7 µM (inactive)
- GI50 (Malme-3M): 36.9 µM (inactive)
- GI50 (NCI-H226): 21.8 µM (inactive)
- GI50 (NCI-H23): 42.7 µM (inactive)
- GI50 (NCI-H460): 22.2 µM (inactive)
- GI50 (NCI-H522): 16.5 µM (inactive)
- GI50 (NCI/ADR-RES): 21.7 µM (inactive)
- GI50 (OVCAR-3): 20.6 µM (inactive)
- GI50 (OVCAR-4): 51.1 µM (inactive)
- GI50 (OVCAR-5): 76 µM (inactive)
- GI50 (OVCAR-8): 25.9 µM (inactive)
- GI50 (PC-3): > 100 µM (inactive)
- GI50 (RPMI-8226): 20.2 µM (inactive)
- GI50 (RXF 393): 34.5 µM (inactive)
- GI50 (SF-268): 36.3 µM (inactive)
- GI50 (SF-295): 38.1 µM (inactive)
- GI50 (SF-539): 21 µM (inactive)
- GI50 (SK-MEL-28): 24.3 µM (inactive)
- GI50 (SK-MEL-2): 27.6 µM (inactive)
- GI50 (SK-MEL-5): 16.4 µM (inactive)
- GI50 (SK-OV-3): 55.3 µM (inactive)
- GI50 (SN12C): 43.3 µM (inactive)
- GI50 (SNB-19): 25.9 µM (inactive)
- GI50 (SNB-75): 29 µM (inactive)
- GI50 (SW-620): 19.5 µM (inactive)
- GI50 (T47D): > 100 µM (inactive)
- GI50 (TK-10): > 100 µM (inactive)
- GI50 (U-251): 18.4 µM (inactive)
- GI50 (UACC-257): > 100 µM (inactive)
- GI50 (UACC-62): 22.5 µM (inactive)
- GI50 (UO-31): 23.8 µM (inactive)

SMILES: O/N=C(\CC(O)(C(F)(F)F)C(F)(F)F)c1cccs1
- GI50 (786-0): > 10 µM (inactive)
- GI50 (A498): > 10 µM (inactive)
- GI50 (A549): > 10 µM (inactive)
- GI50 (ACHN): > 10 µM (inactive)
- GI50 (BT-549): > 10 µM (inactive)
- GI50 (CAKI-1): > 10 µM (inactive)
- GI50 (CCRF-CEM): > 10 µM (inactive)
- GI50 (COLO 205): > 10 µM (inactive)
- GI50 (DU-145): > 10 µM (inactive)
- GI50 (EKVX): > 10 µM (inactive)
- GI50 (HCC 2998): > 10 µM (inactive)
- GI50 (HCT-116): > 10 µM (inactive)
- GI50 (HCT-15): > 10 µM
- GI50 (HL-60): > 10 µM (inactive)
- GI50 (HOP-62): > 10 µM (inactive)
- GI50 (HOP-92): > 10 µM (inactive)
- GI50 (HT-29): > 10 µM (inactive)
- GI50 (Hs-578T): > 10 µM (inactive)
- GI50 (IGROV-1): > 10 µM (inactive)
- GI50 (K562): > 10 µM (inactive)
- GI50 (KM12): > 10 µM (inactive)
- GI50 (LOX IMVI): > 10 µM (inactive)
- GI50 (M14): > 10 µM (inactive)
- GI50 (MCF7): > 10 µM (inactive)
- GI50 (MDA-MB-231): > 10 µM (inactive)
- GI50 (MDA-MB-435): > 10 µM (inactive)
- GI50 (MDA-N): > 10 µM (inactive)
- GI50 (MOLT-4): > 10 µM (inactive)
- GI50 (Malme-3M): > 10 µM (inactive)
- GI50 (NCI-H226): > 10 µM (inactive)
- GI50 (NCI-H23): > 10 µM (inactive)
- GI50 (NCI-H460): > 10 µM (inactive)
- GI50 (NCI-H522): > 10 µM (inactive)
- GI50 (NCI/ADR-RES): > 10 µM (inactive)
- GI50 (OVCAR-3): > 10 µM (inactive)
- GI50 (OVCAR-4): > 10 µM (inactive)
- GI50 (OVCAR-5): > 10 µM (inactive)
- GI50 (OVCAR-8): > 10 µM (inactive)
- GI50 (PC-3): > 10 µM (inactive)
- GI50 (RPMI-8226): > 10 µM (inactive)
- GI50 (RXF 393): > 10 µM (inactive)
- GI50 (SF-268): > 10 µM (inactive)
- GI50 (SF-295): > 10 µM (inactive)
- GI50 (SF-539): > 10 µM (inactive)
- GI50 (SK-MEL-28): > 10 µM (inactive)
- GI50 (SK-MEL-2): > 10 µM (inactive)
- GI50 (SK-MEL-5): > 10 µM (inactive)
- GI50 (SK-OV-3): > 10 µM (inactive)
- GI50 (SN12C): > 10 µM (inactive)
- GI50 (SNB-19): > 10 µM (inactive)
- GI50 (SNB-75): 7.46 µM (inactive)
- GI50 (SW-620): > 10 µM (inactive)
- GI50 (T47D): > 10 µM (inactive)
- GI50 (TK-10): > 10 µM (inactive)
- GI50 (U-251): > 10 µM (inactive)
- GI50 (UACC-257): > 10 µM (inactive)
- GI50 (UACC-62): > 10 µM (inactive)
- GI50 (UO-31): > 10 µM (inactive)

SMILES: C[C@]12CC/C(=N\O)C=C1CC[C@@H]1[C@@H]2CC[C@]2(C)C(=N/O)/C(=C/c3ccncc3)C[C@@H]12
- GI50 (786-0): 24.7 µM (inactive)
- GI50 (A549): 11.1 µM (inactive)
- GI50 (ACHN): 18.7 µM (inactive)
- GI50 (BT-549): 36.1 µM (inactive)
- GI50 (CAKI-1): 24.2 µM (inactive)
- GI50 (COLO 205): 15.9 µM (inactive)
- GI50 (DU-145): 31.6 µM (inactive)
- GI50 (EKVX): 25.7 µM (inactive)
- GI50 (HCC 2998): 19.1 µM (inactive)
- GI50 (HCT-116): 10 µM (inactive)
- GI50 (HCT-15): 5.48 µM
- GI50 (HL-60): 0.1 µM (active)
- GI50 (HOP-62): 41.2 µM (inactive)
- GI50 (HOP-92): 30.5 µM (inactive)
- GI50 (HT-29): 11.5 µM (inactive)
- GI50 (Hs-578T): 86.5 µM (inactive)
- GI50 (IGROV-1): 53.8 µM (inactive)
- GI50 (K562): 26.4 µM (inactive)
- GI50 (KM12): 17.3 µM (inactive)
- GI50 (LOX IMVI): 20 µM (inactive)
- GI50 (M14): 13.5 µM (inactive)
- GI50 (MCF7): 16.3 µM (inactive)
- GI50 (MDA-MB-231): 20.8 µM (inactive)
- GI50 (MDA-MB-435): 21.8 µM (inactive)
- GI50 (MDA-N): 21.7 µM (inactive)
- GI50 (MOLT-4): 18.8 µM (inactive)
- GI50 (Malme-3M): 37.5 µM (inactive)
- GI50 (NCI-H226): 6.37 µM (inactive)
- GI50 (NCI-H23): 31.5 µM (inactive)
- GI50 (NCI-H460): 14.6 µM (inactive)
- GI50 (NCI-H522): 27.2 µM (inactive)
- GI50 (NCI/ADR-RES): 21.2 µM (inactive)
- GI50 (OVCAR-3): 20 µM (inactive)
- GI50 (OVCAR-4): 31.9 µM (inactive)
- GI50 (OVCAR-5): 42.8 µM (inactive)
- GI50 (OVCAR-8): 24.6 µM (inactive)
- GI50 (PC-3): 14 µM (inactive)
- GI50 (RPMI-8226): 6.85 µM (inactive)
- GI50 (RXF 393): 24.3 µM (inactive)
- GI50 (SF-268): 28.7 µM (inactive)
- GI50 (SF-295): 31.3 µM (inactive)
- GI50 (SF-539): 31.8 µM (inactive)
- GI50 (SK-MEL-28): 39.8 µM (inactive)
- GI50 (SK-MEL-2): 15 µM (inactive)
- GI50 (SK-MEL-5): 7 µM (inactive)
- GI50 (SK-OV-3): 51.5 µM (inactive)
- GI50 (SN12C): 17.3 µM (inactive)
- GI50 (SNB-19): 28.8 µM (inactive)
- GI50 (SNB-75): 25.5 µM (inactive)
- GI50 (SR): 12.7 µM (inactive)
- GI50 (SW-620): 37.4 µM (inactive)
- GI50 (T47D): 19.7 µM (inactive)
- GI50 (TK-10): 36.1 µM (inactive)
- GI50 (U-251): 29.2 µM (inactive)
- GI50 (UACC-257): 28.4 µM (inactive)
- GI50 (UACC-62): 16.4 µM (inactive)
- GI50 (UO-31): 3.62 µM (inactive)
